Measurements as given in ChEMBL document CHEMBL3991601, “The target landscape of clinical kinase drugs” (Science, 2017).
Activity calls are given as the source filed them.

Experiments:
[1] = target: MAP kinase-activated protein kinase 2 (Homo sapiens, UniProt P49137)
[2] = target: T1, Serine/threonine-protein kinase TBK1 (Homo sapiens, UniProt Q9UHD2)
T1 sequence (Q9UHD2 whole entry): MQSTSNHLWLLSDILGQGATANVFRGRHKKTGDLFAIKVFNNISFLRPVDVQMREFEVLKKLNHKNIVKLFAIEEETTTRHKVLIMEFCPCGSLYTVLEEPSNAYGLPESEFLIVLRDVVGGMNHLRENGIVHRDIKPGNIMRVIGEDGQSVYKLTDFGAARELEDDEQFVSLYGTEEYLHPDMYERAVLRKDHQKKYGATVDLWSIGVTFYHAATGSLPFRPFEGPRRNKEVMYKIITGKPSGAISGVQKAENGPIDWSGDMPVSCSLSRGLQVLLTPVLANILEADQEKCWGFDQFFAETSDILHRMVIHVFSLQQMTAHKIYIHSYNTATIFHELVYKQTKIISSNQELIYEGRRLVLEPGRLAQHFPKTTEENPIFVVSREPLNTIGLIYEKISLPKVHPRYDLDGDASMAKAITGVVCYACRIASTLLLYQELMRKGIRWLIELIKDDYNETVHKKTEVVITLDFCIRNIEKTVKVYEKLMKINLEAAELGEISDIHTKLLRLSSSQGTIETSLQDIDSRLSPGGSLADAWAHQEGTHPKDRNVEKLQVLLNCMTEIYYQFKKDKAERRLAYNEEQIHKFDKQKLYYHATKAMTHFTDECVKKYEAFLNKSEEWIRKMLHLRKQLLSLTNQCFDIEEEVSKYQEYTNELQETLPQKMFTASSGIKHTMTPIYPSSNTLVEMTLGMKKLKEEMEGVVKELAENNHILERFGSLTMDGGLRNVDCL

[3] = target: T2, cGMP-dependent protein kinase 1 (Homo sapiens, UniProt Q13976)
T2 sequence (Q13976 whole entry): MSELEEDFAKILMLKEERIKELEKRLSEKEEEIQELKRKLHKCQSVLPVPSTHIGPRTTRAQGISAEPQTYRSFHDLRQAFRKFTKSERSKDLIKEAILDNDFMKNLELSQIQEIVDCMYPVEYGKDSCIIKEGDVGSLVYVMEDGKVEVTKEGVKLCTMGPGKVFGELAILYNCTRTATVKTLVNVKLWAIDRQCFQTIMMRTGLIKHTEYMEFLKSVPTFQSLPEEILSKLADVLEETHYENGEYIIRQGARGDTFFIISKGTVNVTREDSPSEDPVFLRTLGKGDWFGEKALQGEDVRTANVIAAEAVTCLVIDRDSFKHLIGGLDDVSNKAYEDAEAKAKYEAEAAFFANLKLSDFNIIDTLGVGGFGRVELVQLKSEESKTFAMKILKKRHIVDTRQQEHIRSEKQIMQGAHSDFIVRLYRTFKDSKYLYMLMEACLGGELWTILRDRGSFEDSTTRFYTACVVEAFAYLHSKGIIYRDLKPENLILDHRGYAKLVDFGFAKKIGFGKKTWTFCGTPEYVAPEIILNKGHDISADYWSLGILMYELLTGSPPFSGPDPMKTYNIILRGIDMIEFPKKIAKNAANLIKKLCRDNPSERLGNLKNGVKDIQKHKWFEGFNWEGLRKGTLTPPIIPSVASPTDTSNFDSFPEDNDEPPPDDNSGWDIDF

[4] = target: T3, ATP-dependent RNA helicase DDX1 (Homo sapiens, UniProt Q92499)
T3 sequence (Q92499 whole entry): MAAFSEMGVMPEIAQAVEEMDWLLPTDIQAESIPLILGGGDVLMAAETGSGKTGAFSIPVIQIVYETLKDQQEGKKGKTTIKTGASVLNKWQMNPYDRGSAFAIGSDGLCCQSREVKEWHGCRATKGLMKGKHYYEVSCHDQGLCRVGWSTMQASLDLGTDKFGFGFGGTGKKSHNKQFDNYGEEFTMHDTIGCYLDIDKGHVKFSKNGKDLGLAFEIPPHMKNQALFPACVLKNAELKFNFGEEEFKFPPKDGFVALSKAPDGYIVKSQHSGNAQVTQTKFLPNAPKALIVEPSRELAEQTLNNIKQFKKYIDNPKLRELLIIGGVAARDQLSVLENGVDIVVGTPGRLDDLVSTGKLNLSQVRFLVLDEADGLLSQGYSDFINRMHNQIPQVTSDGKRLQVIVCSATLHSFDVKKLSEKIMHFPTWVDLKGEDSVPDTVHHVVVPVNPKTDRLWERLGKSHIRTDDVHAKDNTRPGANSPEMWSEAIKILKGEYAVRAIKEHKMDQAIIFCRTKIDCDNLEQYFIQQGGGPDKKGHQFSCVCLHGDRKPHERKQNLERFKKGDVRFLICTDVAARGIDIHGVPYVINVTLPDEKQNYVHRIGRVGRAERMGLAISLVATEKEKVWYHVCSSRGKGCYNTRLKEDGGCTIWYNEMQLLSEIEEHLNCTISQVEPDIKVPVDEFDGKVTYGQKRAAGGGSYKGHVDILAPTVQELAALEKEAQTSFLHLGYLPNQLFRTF

[5] = target: Serine/threonine-protein kinase/endoribonuclease IRE2 (Homo sapiens, UniProt Q76MJ5)
[6] = target: T4, Acyl-CoA dehydrogenase family member 11 (Homo sapiens, UniProt Q709F0)
T4 sequence (Q709F0 whole entry): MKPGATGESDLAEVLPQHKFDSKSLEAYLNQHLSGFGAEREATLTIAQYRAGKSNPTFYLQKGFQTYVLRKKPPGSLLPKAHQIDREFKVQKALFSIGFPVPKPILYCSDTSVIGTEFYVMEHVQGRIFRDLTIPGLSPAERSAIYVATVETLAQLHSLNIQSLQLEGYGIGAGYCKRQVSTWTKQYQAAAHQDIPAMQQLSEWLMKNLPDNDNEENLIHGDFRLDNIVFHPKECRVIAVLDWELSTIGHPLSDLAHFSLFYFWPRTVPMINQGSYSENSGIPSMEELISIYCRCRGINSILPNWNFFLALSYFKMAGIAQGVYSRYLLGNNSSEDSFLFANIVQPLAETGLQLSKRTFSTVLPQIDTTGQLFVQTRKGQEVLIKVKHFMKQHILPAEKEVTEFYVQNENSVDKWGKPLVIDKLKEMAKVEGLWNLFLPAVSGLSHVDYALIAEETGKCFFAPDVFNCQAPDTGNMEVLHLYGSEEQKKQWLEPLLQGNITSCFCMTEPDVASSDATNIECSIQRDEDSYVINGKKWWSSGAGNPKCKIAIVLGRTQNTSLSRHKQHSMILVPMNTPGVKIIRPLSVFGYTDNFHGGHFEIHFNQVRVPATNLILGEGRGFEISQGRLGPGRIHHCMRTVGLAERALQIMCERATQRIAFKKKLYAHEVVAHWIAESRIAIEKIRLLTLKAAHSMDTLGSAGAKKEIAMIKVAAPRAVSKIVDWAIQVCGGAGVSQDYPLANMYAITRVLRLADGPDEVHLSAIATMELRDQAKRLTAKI
Further: in the data inactive means no Kd found up to 30 µM.

Chain of Serine/threonine-protein kinase/endoribonuclease IRE2 (Q76MJ5 whole entry): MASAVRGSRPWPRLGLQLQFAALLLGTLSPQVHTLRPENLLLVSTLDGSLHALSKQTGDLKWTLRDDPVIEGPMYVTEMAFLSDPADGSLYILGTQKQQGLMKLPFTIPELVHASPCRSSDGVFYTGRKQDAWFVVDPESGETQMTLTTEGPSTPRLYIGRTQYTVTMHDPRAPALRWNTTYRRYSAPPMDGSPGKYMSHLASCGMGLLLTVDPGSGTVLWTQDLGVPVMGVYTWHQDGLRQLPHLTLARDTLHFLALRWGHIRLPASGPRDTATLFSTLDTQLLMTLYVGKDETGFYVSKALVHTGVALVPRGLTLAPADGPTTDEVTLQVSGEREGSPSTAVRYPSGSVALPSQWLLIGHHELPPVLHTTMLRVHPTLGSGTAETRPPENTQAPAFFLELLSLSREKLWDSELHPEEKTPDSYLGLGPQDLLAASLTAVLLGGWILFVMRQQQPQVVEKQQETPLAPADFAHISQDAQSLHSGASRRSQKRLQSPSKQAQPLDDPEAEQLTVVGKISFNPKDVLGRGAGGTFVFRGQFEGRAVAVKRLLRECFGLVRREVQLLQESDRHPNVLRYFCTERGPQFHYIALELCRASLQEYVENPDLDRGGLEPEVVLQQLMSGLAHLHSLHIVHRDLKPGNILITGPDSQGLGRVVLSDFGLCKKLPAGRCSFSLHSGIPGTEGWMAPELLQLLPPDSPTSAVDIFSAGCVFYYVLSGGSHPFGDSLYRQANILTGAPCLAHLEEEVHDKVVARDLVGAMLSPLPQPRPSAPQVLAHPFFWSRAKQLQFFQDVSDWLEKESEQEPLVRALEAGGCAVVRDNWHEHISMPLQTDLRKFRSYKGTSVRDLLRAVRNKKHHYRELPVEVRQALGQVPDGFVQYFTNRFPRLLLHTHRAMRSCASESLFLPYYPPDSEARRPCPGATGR
Chain of MAP kinase-activated protein kinase 2 (P49137 whole entry): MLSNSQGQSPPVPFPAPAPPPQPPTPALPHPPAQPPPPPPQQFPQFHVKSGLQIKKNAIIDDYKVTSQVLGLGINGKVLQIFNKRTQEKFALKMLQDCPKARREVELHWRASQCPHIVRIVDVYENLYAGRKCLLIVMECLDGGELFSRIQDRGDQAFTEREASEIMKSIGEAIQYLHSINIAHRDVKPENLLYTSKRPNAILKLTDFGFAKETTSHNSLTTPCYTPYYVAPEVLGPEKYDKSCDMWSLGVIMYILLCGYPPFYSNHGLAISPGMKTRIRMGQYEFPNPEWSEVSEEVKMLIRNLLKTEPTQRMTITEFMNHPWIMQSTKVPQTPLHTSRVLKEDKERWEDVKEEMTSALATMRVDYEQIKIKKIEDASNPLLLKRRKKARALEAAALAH

Row | SMILES | Kd [1] | Kd [2] | Kd [3] | Kd [4] | Kd [5] | Kd [6]
1 | Cn1cc(-c2[nH]c3cc(NC(=O)[C@H](N)C4CCCCC4)cc4c3c2C=NNC4=O)cn1 | > 30 µM (inactive) | > 30 µM (inactive) | > 30 µM (inactive) | > 30 µM (inactive) | > 30 µM (inactive) | > 30 µM (inactive)
2 | CCN1CCN(Cc2ccc(Nc3ncc(F)c(-c4cc(F)c5nc(C)n(C(C)C)c5c4)n3)nc2)CC1 [ABEMACICLIB] | > 30 µM (inactive) | > 30 µM (inactive) | > 30 µM (inactive) | > 30 µM (inactive) | > 30 µM (inactive) | > 30 µM (inactive)
3 | Cc1c(NC(=O)OC[C@@H]2COCCN2)cn2ncnc(Nc3ccc4c(cnn4Cc4cccc(F)c4)c3)c12 [AC-480] | > 30 µM (inactive) | > 30 µM (inactive) | > 30 µM (inactive) | > 30 µM (inactive) | > 30 µM (inactive) | > 30 µM (inactive)
4 | CCc1cc2c(cc1N1CCC(N3CCOCC3)CC1)C(C)(C)c1[nH]c3cc(C#N)ccc3c1C2=O [ALECTINIB] | > 30 µM (inactive) | > 30 µM (inactive) | > 30 µM (inactive) | > 30 µM (inactive) | > 30 µM (inactive) | > 30 µM (inactive)
5 | S=C(NCc1ccc2c(c1)OCO2)N1CCN(c2ncnc3c2oc2ccccc23)CC1 [AMUVATINIB] | > 30 µM (inactive) | > 30 µM (inactive) | > 30 µM (inactive) | > 30 µM (inactive) | > 30 µM (inactive) | > 30 µM (inactive)
6 | NC[C@@](O)(c1ccc(Cl)cc1)c1ccc(-c2cn[nH]c2)cc1 [AT-13148] | > 30 µM (inactive) | > 30 µM (inactive) | > 30 µM (inactive) | > 30 µM (inactive) | – | > 30 µM (inactive)
7 | COc1ccc(-c2ccc3ncc4c(c3c2)n(-c2ccc(N3CCNCC3)c(C(F)(F)F)c2)c(=O)n4C)cn1 [BGT-226 FREE BASE] | > 30 µM (inactive) | > 30 µM (inactive) | > 30 µM (inactive) | > 30 µM (inactive) | > 30 µM (inactive) | > 30 µM (inactive)
8 | COc1cc2nccc(Oc3ccc(NC(=O)C4(C(=O)Nc5ccc(F)cc5)CC4)cc3)c2cc1OC [CABOZANTINIB] | > 30 µM (inactive) | > 30 µM (inactive) | > 30 µM (inactive) | > 30 µM (inactive) | > 30 µM (inactive) | > 30 µM (inactive)
9 | CC1(COc2ccc3c(c2)ncn3-c2ccc3cccc(N4CCC(N)CC4)c3n2)COC1 [CRENOLANIB] | > 30 µM (inactive) | > 30 µM (inactive) | > 30 µM (inactive) | > 30 µM (inactive) | > 30 µM (inactive) | > 30 µM (inactive)
10 | COc1cc2ncnc(Nc3ccc(F)c(Cl)c3)c2cc1NC(=O)/C=C/CN1CCCCC1 [DACOMITINIB ANHYDROUS] | > 30 µM (inactive) | > 30 µM (inactive) | > 30 µM (inactive) | > 30 µM (inactive) | > 30 µM (inactive) | > 30 µM (inactive)
11 | CCc1nc(C(N)=O)c(Nc2ccc(N3CCC(N4CCN(C)CC4)CC3)c(OC)c2)nc1NC1CCOCC1 [GILTERITINIB] | > 30 µM (inactive) | > 30 µM (inactive) | > 30 µM (inactive) | – | > 30 µM (inactive) | > 30 µM (inactive)
12 | C=CCN(/C=C1/C(=O)O[C@H](COC)[C@@]2(C)C1=C(O)C(=O)C1=C2[C@H](OC(C)=O)C[C@]2(C)C(=O)CC[C@@H]12)CC=C [SONOLISIB] | > 30 µM (inactive) | > 30 µM (inactive) | > 30 µM (inactive) | – | > 30 µM (inactive) | > 30 µM (inactive)
13 | CN1CCN(c2nc(C3=C(c4c[nH]c5ccccc45)C(=O)NC3=O)c3ccccc3n2)CC1 [SOTRASTAURIN] | > 30 µM (inactive) | > 30 µM (inactive) | > 30 µM (inactive) | > 30 µM (inactive) | > 30 µM (inactive) | –
14 | CNC(=O)c1cc(COc2nnc(Nc3ccc(Cl)cc3)c3ccoc23)ccn1 [TELATINIB] | > 30 µM (inactive) | > 30 µM (inactive) | > 30 µM (inactive) | > 30 µM (inactive) | > 30 µM (inactive) | –

The next lines start with the values.

Row | Kd [1] | Kd [2] | Kd [3] | Kd [4] | Kd [5] | Kd [6] | SMILES
15 | > 30 µM (inactive) | > 30 µM (inactive) | > 30 µM (inactive) | > 30 µM (inactive) | > 30 µM (inactive) | > 30 µM (inactive) | COc1ccc2c(OCc3nnc4ccc(-c5ccccc5)nn34)ccnc2c1 [AMG-208]
16 | > 30 µM (inactive) | > 30 µM (inactive) | > 30 µM (inactive) | > 30 µM (inactive) | > 30 µM (inactive) | > 30 µM (inactive) | Cc1cc(Nc2nc(N[C@@H](C)c3ncc(F)cn3)ncc2Cl)n[nH]1 [AZD-1480]
17 | > 30 µM (inactive) | > 30 µM (inactive) | > 30 µM (inactive) | > 30 µM (inactive) | > 30 µM (inactive) | > 30 µM (inactive) | COc1cccc(Nc2ncnn3ccc(CN4CC[C@@H](N)[C@H](O)C4)c23)c1 [BMS-690514]
18 | > 30 µM (inactive) | > 30 µM (inactive) | > 30 µM (inactive) | > 30 µM (inactive) | > 30 µM (inactive) | > 30 µM (inactive) | CCOc1ccn(-c2ccc(F)cc2)c(=O)c1C(=O)Nc1ccc(Oc2ccnc(N)c2Cl)c(F)c1 [BMS-777607]
19 | > 30 µM (inactive) | > 30 µM (inactive) | > 30 µM (inactive) | > 30 µM (inactive) | > 30 µM (inactive) | > 30 µM (inactive) | c1cc(OCCN2CCCCC2)cc(-c2n[nH]c3ccc(-c4nc[nH]n4)cc23)c1 [CC-401]
